Results on two compounds are retold here after US20050171032A1, “Methods for the treatment of cancer” (priority 2002, published 2005).

One data set concerns EGFR. As to the kind of experiment: EGFR phosphorylation by immunoblot of detergent fractions, LNCaP cells. Type of data set: cell-based, human. In general terms: In western blotting, separated proteins are transferred to a membrane and probed.
The test system of data set [1] is LNCaP cells. Briefly: Apoptosis assays (TUNEL/flow cytometry, cell death detection ELISA, DNA ladder) in LNCaP cells. Type of data set: cell-based, human. The note with it: serum-free, 20 μM LY294002 20 h, 2 μg/ml filipin 1 h, FIG. 3.
Description: Apoptosis was quantified by TUNEL in combination with flow cytometry (FIG. 3A). LNCaP cells were seeded 24 h before treatments in 6-well plates at a density of 2-4×10^5/well. Conditions shown are: 20 h in serum-free medium (SFM); 20 μM LY294002 (LY); 20 μM LY294002 with 10 ng/ml EGF treatment (LY+E); 2 μg/ml filipin for 1 h (F); filipin treatment as (F) with 10 ng/ml EGF for 20 h (F+E); treatment with 2 μg/ml filipin and cyclodextrin/cholesterol complexes (C) for 1 h, followed by incubation with serum-free medium containing 20 μM LY294002 and 10 ng/ml EGF for 20 h (F+C+LY+E). Quantitative measurement of DNA fragmentation was performed with a cell death detection ELISA kit (FIG. 3B). […]
A quantitative sandwich ELISA was performed to measure mono- and oligonucleosomes in the cytoplasmic fraction of cell lysates according to the manufacturer's manual (Cell death detection ELISA) (Roche, Indianapolis, Ind.). Briefly, 1.5-2.0×10^5 cells/well were seeded in 6-well plates for 24 h, cell lysates were collected after various treatments as indicated, and the amount of histone-associated DNA fragments was quantified by spectrophotometric measurement of peroxidase activity retained in the immunocomplex (415 nm) against the substrate solution as a blank (490 nm). Apoptosis was also evaluated by the TUNEL method, using the In Situ Cell Death Detection Kit (Roche, Indianapolis, Ind.).
Data set [2] concerns LNCaP cells. Briefly: Cell viability by Trypan blue exclusion. The settings on record: 1 h after filipin treatment, at the doses used; FIG. 2. It is filed as cell-based, human. As to the method: Mock- or filipin (2 μg/ml)-pretreated cells were incubated in serum-free medium with or without cholesterol/cyclodextrin (Cholesterol) complexes for 1 h at 37° C. followed by EGF treatment for 20 min. (FIG. 2A). All cells were subjected to SDEM and the I- and S-fractions analyzed by immunoblot. p-EGFR indicates EGFR phosphorylated on Y1173 detected with a phospho-specific Ab. Cell viability measured by Trypan blue exclusion 1 h after treatment of cells with filipin (FIG. 2B).

Another data set concerns Akt1. Briefly: Akt1 phosphorylation (Ser-473) by immunoblot, LNCaP cells. It is filed as cell-based, human. The note with it: FIG. 4A. As to the method:
LNCaP cells were used for all experiments shown. Prior to challenge with EGF (2 or 20 ng/ml), some groups of cells were treated with filipin (2 μg/ml) (lanes 7-12) for 1 h. Other cells (lanes 4-6, 10-12) were subsequently incubated with cyclodextrin/cholesterol complexes (Cholesterol) for 1 h to replete cholesterol (FIG. 4A). In this and subsequent panels, lysates were isolated following the various treatments and processed for immunoblot analysis. p-Akt refers to a phosphorylated form of Akt1 detected with a phospho-specific Ab ([…]). […] Cell lysates were isolated following the various treatments and processed for immunoblot analysis. p-Akt=phosphorylated form of Akt detected with a phospho-specific Ab ([…]). […] In these experiments the apoptosis of cells treated with simvastatin or mock-treated, with or without raft reconstitution, was quantified by cell death detection ELISA (Roche). Cells were either mock-treated or treated with various doses of simvastatin as indicated for 16 hours and the amount of apoptosis was quantified by ELISA and is graphically represented as absorbance at 405 nm-490 nm vs. dose of statin drug±SD from triplicate determinations (FIG. 6B). The cells were treated either in simvastatin (Sim; 10 μM) or simvastatin (Sim) and cyclodextrin/cholesterol complex (+cholesterol) for 4 hours and the amount of apoptosis was quantified by ELISA (FIG. 6C). […]

Another data set deals with LNCaP-Cav-1 cells. As to the kind of experiment: EGFR and Akt1 phosphorylation by immunoblot, caveolin-1 transfected LNCaP cells. The settings on record: 2 μg/ml filipin 1 h, 5 ng/ml EGF 20 min, FIG. 4F. Type of data set: cell-based, human. As to the method: LNCaP cells were used for all experiments shown. Prior to challenge with EGF (2 or 20 ng/ml), some groups of cells were treated with filipin (2 μg/ml) (lanes 7-12) for 1 h. Other cells (lanes 4-6, 10-12) were subsequently incubated with cyclodextrin/cholesterol complexes (Cholesterol) for 1 h to replete cholesterol (FIG. 4A). In this and subsequent panels, lysates were isolated following the various treatments and processed for immunoblot analysis. p-Akt refers to a phosphorylated form of Akt1 detected with a phospho-specific Ab (Ser-473). Cells were serum-starved overnight, then pretreated with 5 mM cyclodextrin for the indicated times (lanes 1-6), or treated for 1 h with varying concentrations of cyclodextrin (lanes 7-10), then treated immediately afterward with vehicle or with 5 ng/ml EGF (FIG. 4B). Cells were either mock-treated or treated with varying doses of filipin as indicated for 1 h followed by 5 ng/ml EGF treatment (FIG. 4C). Serum-containing medium was removed and cells were treated immediately with 2 μg/ml filipin alone under serum-free conditions for the times shown (FIG. 4D). No change in EGFR or Akt1 phosphorylation was observed when serum was removed and cells were not treated with filipin (not shown). […]

The next data set relates to PC-3 cells. Briefly: EGFR and Akt1 phosphorylation by immunoblot, PC-3 cells. Type of data set: cell-based, human. The settings on record: 2 μg/ml filipin 1 h, 5 ng/ml EGF 20 min, FIG. 4F.
The test system of data set [3] is prostate glandular hyperplasia. The note with it: dogs; published evidence (30); cited from earlier work.
Data set [4] concerns Human primary culture prostate epithelial cells. Briefly: Apoptosis by cell death detection ELISA in primary culture prostate epithelial cells. Type of data set: cell-based. The settings on record: various concentrations simvastatin, 16 hours; FIG. 7. As to the method:
Human primary culture prostate epithelial cells were treated with various concentrations simvastatin or were mock treated as indicated at 37 °C for 16 hours. Subsequently the cells were lysed and apoptosis was quantified by cell death detection ELISA (Roche).
Background: In an ELISA, binding on a coated surface is turned into a signal by an enzyme label.

Description for PC-3 cells: Prior to challenge with EGF (2 or 20 ng/ml), some groups of cells were treated with filipin (2 μg/ml) (lanes 7-12) for 1 h. […] In this and subsequent panels, lysates were isolated following the various treatments and processed for immunoblot analysis. p-Akt refers to a phosphorylated form of Akt1 detected with a phospho-specific Ab (Ser-473). […] LNCaP-Cav-1 cells and PC-3 cells were mock-treated or treated with 2 μg/ml filipin for 1 h at 37° C. […] Prior to the collection of cell lysates and immunoblot analysis, cells were stimulated with 5 ng/ml EGF for 20 min at 37° C.
Human PCa cell lines LNCaP and PC-3 were purchased from the American Type Culture Collection (ATCC; Rockville, Md.). Both cell lines were cultured in RPMI 1640 supplemented with 10% heat-inactivated FBS.

As for `CCCCC[C@@H](O)[C@H]1C(=O)O[C@H](C)[C@@H](O)/C=C/C=C/C=C/C=C/C=C(\C)[C@@H](O)C[C@H](O)C[C@H](O)C[C@H](O)C[C@H](O)C[C@H](O)C[C@@H]1O` [filipin, Filipin], the “ligand-dependent EGFR phosphorylation in the I-fraction” value in the data set with EGFR (filipin pretreatment 2 μg/ml, then EGF 20 min, FIG. 2) is given as “suppressed”. For the same compound, in the data set on EGFR (varying filipin doses and times, FIG. 4A, C, D), the “constitutive and EGF-induced EGFR phosphorylation” value was “decreased with filipin treatment in a dose- and time-dependent fashion”. In the data set on LNCaP cells [1], the apoptosis result is “stimulated apoptosis to a similar extent as the PI3K inhibitor”. Also, the “cells that excluded Trypan blue” value in the data set on LNCaP cells [2] turned out to be 100%. The “EGF-induced Akt1 phosphorylation” value in the data set with Akt1 (2 μg/ml filipin 1 h, 20 ng/ml EGF) is “substantially reduced”. In addition, the “constitutive and EGF-induced Akt1 phosphorylation” value in the data set on Akt1 (varying filipin doses and times, C, D) is “decreased with filipin treatment in a dose- and time-dependent fashion”. Besides, in the data set with LNCaP-Cav-1 cells, the “ligand-induced Akt1 phosphorylation” value is on record as “suppressed” and the “ligand-induced EGFR phosphorylation” value is recorded as “suppressed”. Further, in the data set with PC-3 cells, the “ligand-induced Akt1 phosphorylation” value is “suppressed” and the “ligand-induced EGFR phosphorylation” value is “suppressed”. In addition, in data set [3], the “reduction of prostate glandular hyperplasia” value is “up to 75%” and the toxicity entry is given as “no toxicity”.
For `CCC(C)(C)C(=O)O[C@H]1C[C@@H](C)C=C2C=C[C@H](C)[C@H](CC[C@@H]3C[C@@H](O)CC(=O)O3)[C@H]21` [simvastatin], the “apoptosis in normal prostatic cells” value in data set [4] was “does not cause apoptosis”.
